Earlier results as cited in patent publication US5659037A, “Process for preparing chiral tetracyclic dopaminergic compounds” (Abbott Laboratories, priority 1995, dated 1997).

Assays:
[1] = system: dopamine D1; details: Nichols U.S. Pat. No. 5,047,536; WO 93/24462; Brewster et al. (1990)
[2] = system: adenylate cyclase; details: Knoerzer et al., J. Med. Chem., 37:2453-60 (1994)
[3] = Seeman, Pharmacol. Rev. 32:2:229 (1980)

SMILES	dopamine D1 agonist activity [1]	further results
Cc1ccc2c(c1)[C@@H]1c3cc(O)c(O)cc3CC[C@H]1NC2 (relative stereo) [2-methyl derivative]	potent and selective dopamine D1 agonists	
Oc1cc2c(cc1O)[C@@H]1c3ccccc3CN[C@H]1CC2 (relative stereo) [dihydrexidine, trans-10,11-dihydroxy-5,6,6a,7,8,12b-hexahydrobenzo[a]phenanthridine]	potent and selective dopamine D1 agonists	
Oc1cc2c(cc1O)[C@@H]1c3ccccc3CN[C@H]1CC2 [6aS,12bR-(-)-isomer]		activity in an adenylate cyclase assay [2]: inactive
NC1CCc2cc(O)c(O)cc2C1 (stereo not shown) [ADTN, 2-amino-6,7-dihydroxy-1,2,3,4-tetrahydronaphthalene]		dopamine agonist activity [3]: greatest activity in its chiral (R)-(+)-isomeric form
